{"source": "patent US20060014987A1", "about": "“Synthesis of beta-elemene, intermediates thereto, analogues and uses thereof” (priority 2003, published 2006)", "key": {"[1]": {"tested_on": "G422 mice glioma (intracranial inoculation)", "test": "Intracranial inoculation, survival", "type": "in vivo", "conditions": "positive control, i.p. 5 mg/kg once a day for 7 days", "description": "Each experiment was repeated three times.\nIntracranial inoculation: Scientists took aseptically G422 tumor from well-growing mice to prepare 2×10^7 cells/ml suspension by even protoplasm method. Mice were inoculated intracranially with 0.05 ml suspension. Treatment started the day after the inoculation. Animal survival time was recorded for 30 days."}, "[2]": {"tested_on": "sensitive parental cell line CEM", "test": "IC50 and drug accumulation in the sensitive line"}, "tumor cells": {"tested_on": "tumor cells", "conditions": "in vitro; cited from earlier work"}, "MDR cell line CEM/ADM": {"tested_on": "MDR cell line CEM/ADM", "test": "MDR reversal, MTT method"}, "[3]": {"tested_on": "MDR1 mRNA in CEM.ADM cells", "test": "MDR1 mRNA by Rt-PCR"}, "liver cancer cell SMMC": {"tested_on": "liver cancer cell SMMC", "conditions": "Elemene at 20 ug/ml; cited from earlier work"}, "[4]": {"tested_on": "Human hepatic cancer BEL-7402 cell line", "conditions": "after 6 weeks of induction with Elemene at 48.9 ug/ml; cited from earlier work"}, "glioblastoma": {"tested_on": "glioblastoma", "conditions": "after treatment with this drug; cited from earlier work"}, "[5]": {"conditions": "3H labeled, injected intravenously or taken orally; cited from earlier work"}, "human brain tumor, A-127": {"tested_on": "human brain tumor, A-127", "test": "MTT assay, anti tumor activities of derivatives", "type": "cell-based"}, "[6]": {"tested_on": "recurrent anaplastic astrocytoma", "conditions": "cited from earlier work"}, "[7]": {"tested_on": "SHG-44 Human Brain Glioma (Subcutaneous Inoculation)", "conditions": "positive control, 30 mg/kg once a day for 7 days"}, "SKOV3/CIS cells": {"tested_on": "SKOV3/CIS cells", "conditions": "cited from earlier work"}, "CEM/ADM cells": {"tested_on": "CEM/ADM cells", "test": "Intracellular drug accumulation", "conditions": "verapamil at 7.5 ug/ml"}}}
{"smiles": "COc1cc([C@@H]2c3cc4c(cc3[C@@H](O[C@@H]3O[C@@H]5CO[C@@H](c6cccs6)O[C@H]5[C@H](O)[C@H]3O)[C@H]3COC(=O)[C@H]23)OCO4)cc(OC)c1O", "note": "[VM-26]", "values": [{"measurement": "LPR Experiment 1", "setting": "[1]", "result": 183.24, "unit": "%"}, {"measurement": "LPR Experiment 2", "setting": "[1]", "result": 168.75, "unit": "%"}, {"measurement": "LPR Experiment 3", "setting": "[1]", "result": 171.2, "unit": "%"}, {"measurement": "Mean Survival Time (Days) Experiment 1", "setting": "[1]", "result": "24.5 ± 6.0", "unit": "days"}, {"measurement": "Mean Survival Time (Days) Experiment 2", "setting": "[1]", "result": "25.8 ± 5.1", "unit": "days"}, {"measurement": "Mean Survival Time (Days) Experiment 3", "setting": "[1]", "result": "25.9 ± 4.7", "unit": "days"}, {"measurement": "animals alive at the end / at the beginning of the treatment (n/m)", "setting": "[1]", "result": "VM-26 (4/10)"}]}
{"smiles": "C=C[C@]1(C)CC[C@@H](C(=C)C)C[C@H]1C(=C)C", "note": "[beta-elemene, (−)-beta-elemene]", "values": [{"measurement": "effect on IC50 values and drug accumulations", "setting": "[2]", "result": "no effect"}, {"measurement": "IC50 for tumor cells", "setting": "tumor cells", "result": "20 to 50", "unit": "µg/mL"}, {"measurement": "dose modifying factor (DMF) for DAU", "setting": "MDR cell line CEM/ADM; beta-elemene at 3 ug/ml", "result": 1.79}, {"measurement": "dose modifying factor (DMF) for VCR", "setting": "MDR cell line CEM/ADM; beta-elemene at 3 ug/ml", "result": 1.60}, {"measurement": "dose modifying factor (DMF) for ADM", "setting": "MDR cell line CEM/ADM; beta-elemene at 3 ug/ml, IC50 without/with MDR modulator", "result": 1.84}, {"measurement": "quantity of MDR1 mRNA", "setting": "[3]", "result": "no quantity change"}, {"measurement": "G0/G1 to S phase transition", "setting": "liver cancer cell SMMC", "result": "blocked G0/G1 to S phase transition"}, {"measurement": "expression of MDR1 mRNA or P-glycoprotein (P-gp)", "setting": "[4]", "result": "did not express MDR1 mRNA or P-glycoprotein (P-gp)"}, {"measurement": "longest survival time of a glioblastoma patient", "setting": "glioblastoma", "result": 62, "unit": "months"}, {"measurement": "passage of the blood brain barrier (BBB)", "setting": "[5]", "result": "Radioactivity was detected in animals' brain"}]}
{"smiles": "C=C[C@]1(C)CC[C@@H](C(C)(O)CO)C[C@H]1C(=C)C", "note": "(single isomer, unassigned) [LR1, (R or S)-2-((1R,3S,4S)-3-Isopropenyl-4-methyl-4-vinyl-cyclohexyl)-propane-1,2-diol]", "values": [{"measurement": "IC50", "setting": "human brain tumor, A-127; 24 Hour", "result": 176, "unit": "µg/mL"}, {"measurement": "IC50", "setting": "human brain tumor, A-127; 48 Hour", "result": 163, "unit": "µg/mL"}, {"measurement": "IC50", "setting": "human brain tumor, A-127; 72 Hour", "result": 133, "unit": "µg/mL"}]}
{"smiles": "Cn1nnc2c(C(N)=O)ncn2c1=O", "note": "[TEMODAR, temozolomide]", "values": [{"measurement": "CR+PR rate", "setting": "[6]; brain tumor patients", "result": 20, "unit": "%"}, {"measurement": "complete responses", "setting": "[6]; human, in vivo", "result": 9, "unit": "%"}, {"measurement": "overall tumor response rate", "setting": "[6]; human, in vivo", "result": 22, "unit": "%"}, {"measurement": "partial responses", "setting": "[6]; human, in vivo", "result": 13, "unit": "%"}]}
{"smiles": "O=P1(N(CCCl)CCCl)NCCCO1", "note": "(stereo not shown) [CTX, cyclo-phosphate acylamine]", "values": [{"measurement": "TIR Experiment 1", "setting": "[7]", "result": 83.16, "unit": "%"}, {"measurement": "TIR Experiment 2", "setting": "[7]", "result": 88.54, "unit": "%"}, {"measurement": "Tumor Weight (g) Experiment 1", "setting": "[7]", "result": "0.33 ± 0.10", "unit": "g"}, {"measurement": "Tumor Weight (g) Experiment 2", "setting": "[7]", "result": "0.22 ± 0.04", "unit": "g"}, {"measurement": "Tumor Weight (g) Experiment 3", "setting": "[7]", "result": "0.23 ± 0.05", "unit": "g"}]}
{"smiles": "COc1ccc(CCN(C)CCCC(C#N)(c2ccc(OC)c(OC)c2)C(C)C)cc1OC", "note": "(stereo not shown) [verapamil]", "values": [{"measurement": "DMF of ADM", "setting": "MDR cell line CEM/ADM; verapamil at 7.5 ug/ml", "result": 2.02}, {"measurement": "DMF of DAU", "setting": "MDR cell line CEM/ADM; verapamil at 7.5 ug/ml", "result": 2.13}, {"measurement": "DMF of VCR", "setting": "MDR cell line CEM/ADM; verapamil at 7.5 ug/ml", "result": 1.95}, {"measurement": "enhancement of the sensitivity of SKOV3/CIS to doxorubicin", "setting": "SKOV3/CIS cells", "result": 260, "unit": "fold"}, {"measurement": "intracellular accumulations of ADM, DAU and VCR versus negative controls", "setting": "CEM/ADM cells", "result": "about 2 times"}]}
